Measurements reported in ChEMBL document CHEMBL1135040, “[(3)H]-M-MPEP, a potent, subtype-selective radioligand for the metabotropic glutamate receptor subtype 5” (Bioorg Med Chem Lett, 2002).

Experiments:
[1] = target: T1, Metabotropic glutamate receptor 5 (Homo sapiens, UniProt P41594); assay: Tested in vitro binding affinity for displacement of [3H]M-MPEP from membrane of L(-tk) cells expressing the Metabotropic glutamate receptor 5, activity expressed as IC50
[2] = target: T1, Metabotropic glutamate receptor 5; assay: In vitro for inhibitory activity of compound against recombinant Metabotropic glutamate receptor 5 evaluated as inhibition of quisqualate-stimulated phosphoinositide (PI) hydrolysis; format: functional

T1 sequence (P41594 whole entry): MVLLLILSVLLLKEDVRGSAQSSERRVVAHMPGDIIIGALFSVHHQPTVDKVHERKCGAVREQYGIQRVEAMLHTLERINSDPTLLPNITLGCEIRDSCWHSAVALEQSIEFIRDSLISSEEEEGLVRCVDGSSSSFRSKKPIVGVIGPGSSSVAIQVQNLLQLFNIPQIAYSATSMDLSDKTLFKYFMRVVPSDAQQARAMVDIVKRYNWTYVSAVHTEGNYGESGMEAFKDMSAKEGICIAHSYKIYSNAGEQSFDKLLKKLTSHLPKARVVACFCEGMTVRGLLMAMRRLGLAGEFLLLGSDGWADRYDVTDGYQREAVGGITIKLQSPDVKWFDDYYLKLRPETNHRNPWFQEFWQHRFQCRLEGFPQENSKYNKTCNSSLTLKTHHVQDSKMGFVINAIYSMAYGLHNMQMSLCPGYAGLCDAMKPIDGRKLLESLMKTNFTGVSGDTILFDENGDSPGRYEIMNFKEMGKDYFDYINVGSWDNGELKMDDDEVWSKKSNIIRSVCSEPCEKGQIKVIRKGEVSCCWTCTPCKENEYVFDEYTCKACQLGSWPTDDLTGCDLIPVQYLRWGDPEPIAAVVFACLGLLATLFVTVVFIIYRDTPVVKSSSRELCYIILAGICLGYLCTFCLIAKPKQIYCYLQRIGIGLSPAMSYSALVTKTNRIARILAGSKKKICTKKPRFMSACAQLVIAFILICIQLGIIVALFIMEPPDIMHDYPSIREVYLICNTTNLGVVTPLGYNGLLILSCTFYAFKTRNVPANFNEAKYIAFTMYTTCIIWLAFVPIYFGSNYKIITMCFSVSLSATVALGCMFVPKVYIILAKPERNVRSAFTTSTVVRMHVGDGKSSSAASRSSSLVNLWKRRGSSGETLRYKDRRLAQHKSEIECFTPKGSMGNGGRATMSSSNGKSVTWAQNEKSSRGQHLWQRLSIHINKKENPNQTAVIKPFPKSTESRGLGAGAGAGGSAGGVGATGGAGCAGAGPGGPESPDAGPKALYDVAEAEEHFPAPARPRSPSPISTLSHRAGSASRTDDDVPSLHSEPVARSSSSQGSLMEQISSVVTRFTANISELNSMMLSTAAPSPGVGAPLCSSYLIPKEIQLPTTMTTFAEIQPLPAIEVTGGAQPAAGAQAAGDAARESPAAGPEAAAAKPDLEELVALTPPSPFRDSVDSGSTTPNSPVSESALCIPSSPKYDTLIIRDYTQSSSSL

| IC50 [1] [nM] | IC50 [2] [nM] | SMILES |
| --- | --- | --- |
| 3.6 | 10 | [3H]C([3H])([3H])OCc1cccc(C#Cc2cccc(C)n2)c1 |
| 1100 | 3000 | Cc1cccc(/C=C/c2ccccc2)n1 |
